From article PMC10704437, “Sterol-activated amyloid beta fibril formation” (The Journal of Biological Chemistry, 2023)
Like-named read-outs stand apart in the source and are kept apart here.

Assays:
Aβ42 = biological target: T1, Aβ42 (Homo sapiens, UniProt P05067); experiment: Aβ42 nucleation rate versus [Aβ42]^2 (ThT, early lag phase, linear fit); format: biochemical; conditions: linear least-squares fit of Rate-versus-[Aβ42]^2; free ligand 17 × Kd
T1 construct: Small red spheres mark the Aβ42 peptide C-terminal residue, A42; purchased Sigma-Aldrich Corp
T1 sequence (P05067 672-713 limits assumed): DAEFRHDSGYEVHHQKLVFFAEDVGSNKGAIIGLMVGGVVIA
Experimental: Reaction 1 of the NEF scheme assumes nucleation is second order in Aβ42 monomer concentration. The reaction order was determined for ligand-bound and free forms of Aβ42 by plotting nucleation rates versus [Aβ42]^n, where n, the reaction order, is 1, 2, or 3—such plots become linear only when n equals the reaction order ([54]). Nucleus formation was monitored via ThT fluorescence in the region of the progress curve where nucleation is rate limiting—the very early stage of the lag phase. Rates were obtained by linear least-squares fitting of progress curves. In all cases, fits were initiated at t0 and deviation from linearity was within experimental error (i.e., χ^2 > 0.95). […] The nucleation rate constants are given by the slopes of the plots (obtained by linear least-squares fitting) and are within the error of those predicted by NEF fitting, see Table 2.
Figure 4 Nucleation reaction order. Reactions were monitored via binding-induced changes in ThT fluorescence (λex = 450 nm, λem = 482 nm). All reactions were performed under the following conditions: ThT (30 μM), DMSO (0.5 % v/v), and K2PO4 (50 mM), pH 7.4, 25 °C ± 2 deg. C. […] A, unliganded Aβ42 nucleation. Titrant concentrations: Aβ42 (1.0, 2.0, 3.0, or 4.0 μM). B, CH•Aβ42 nucleation. […]
The formation of fibril nuclei was monitored via the Aβ-binding induced change in ThT fluorescence (λex = 450 nm, λem = 482 nm, ([42])). […]

Aβ42 monomer = biological target: T2, Aβ42 monomer (Homo sapiens, UniProt P05067); experiment: Sterol binding to Aβ42, equilibrium DHE fluorescence titrations
T2 construct: Small red spheres mark the Aβ42 peptide C-terminal residue, A42; purchased Sigma-Aldrich Corp
T2 sequence (P05067 672-713 limits assumed): as above
Experimental: CH ([27]) and CS ([28]) increase the rate of Aβ aggregation and CH is thought to stabilize fibrils ([29]); yet, the affinities of CH and its metabolites for the Aβ peptide monomer have not been determined. Here, CH and CS affinities for the Aβ42 monomer are established using dehydroergosterol (DHE)—a fluorescent CH analog ([30]) used as a competitive probe to determine CH and CS affinities. Aβ42 monomers were prepared as previously described ([31]) (see Methods). […] Under this condition, Aβ42 essentially quantitatively binds DHE until its concentration exceeds that of DHE, which results in a breakpoint in the titration curve that yields the stoichiometry. The arrow seen descending from the breakpoint indicates a stoichiometry of 1:1, which agrees well with the ∼1:1 CH-metabolite:Aβ stoichiometry estimated from analysis of senile plaques micro-dissected from AD-patient brain tissue ([15]).
Figure 1 Sterol binding to Aβ42at equilibrium.A, DHE affinity for monomeric Aβ4_2. […] Binding was detected via the binding-induced 4.4 (±0.2)-fold increase in DHE fluorescence (λex = 325 nm, λem= 375 nm). Fluorescence intensity, I, is plotted relative to the intensity at zero titrant, I0. Titrations were performed independently in triplicate and the line passing through the data is the least-squares fit to a single-binding-site model. B, Aβ42:DHE stoichiometry. […] C. DHE fluorescence (λex = 325 nm, λem = 375 nm) is plotted versus [Aβ42]/[DHE]. The line descending from the titration breakpoint indicates a stoichiometry of 1:1. C and D, CH and CS affinities. Affinities were determined by competitive binding versus DHE. […] C, was titrated with CH (5.0–500 nM, 0.05–5 × Kd) or CS (5.0–500 nM, 0.15–[…] × Kd). Binding was monitored via the decrease in DHE fluorescence (λex = 325, λem = 375) caused by DHE displacement from Aβ42. Controls ensured that <2.0% of Aβ42 oligomerized during the measurement. Titrations were performed in triplicate and averaged. The solid lines through the data represent least-squares fits to a competitive single-binding-site model. C and D, insets highlight the behavior of the titration over ligand concentrations that span their reported CMCs (indicated by arrows). […]
DHE/Aβ42 binding interactions were monitored via the binding-induced 4.4-fold change in DHE fluorescence (λex = 325 nm, λem= 375 nm). […]
The affinities of CH and CS for Aβ42 were determined in competitive binding studies versus DHE. Binding was detected via the fluorescence decrease (λex= 325 nm, λem = 375 nm) caused by DHE displacement. […] Imax = (fraction DHE-bound to peptide at zero competitive ligands)/4.4 — the fold fluorescence change associated with DHE dissociation, see Figure 1A.

CC(C)CCC[C@@H](C)[C@H]1CC[C@H]2[C@@H]3CC=C4C[C@@H](O)CC[C@]4(C)[C@H]3CC[C@]12C [CH, cholesterol]
Nucleation rate constant, linear model (Aβ42): 7.3 (0.1) × 10^−14 nM^−1 s^−1 | Kd (Aβ42 monomer; determined in DHE competition studies, DHE 10 nM, Aβ42 20 nM, K2PO4 50 mM, pH 7.4, 25 °C, read-out: Kd): 120 nM

CC(C)CCC[C@@H](C)[C@H]1CC[C@H]2[C@@H]3CC=C4C[C@@H](OS(=O)(=O)O)CC[C@]4(C)[C@H]3CC[C@]12C [CS, cholesterol 3-sulfate]
Nucleation rate constant, linear model (Aβ42): 1.5 (0.1) × 10^−11 nM^−1 s^−1 | Kd (Aβ42 monomer): 36 nM | enhanced affinity of CS over CH for Aβ42 (Aβ42 monomer; ratio of Kd values): 3.4 fold
